Source: patent US6638524B2, “Cosmetics, foods and beverages supplemented with purified strictinin” (National Agricultural Research Organization, priority 2000, dated 2003)

How the values were obtained:
[1] = test system: mast cells in abdominal cavity of rat; conditions: literature report; cited from earlier work
[2] = test system: CεGT inducible expression by IL-4 in human B cell line DND 39; test: expression of IgE heavy chain germline transcript (CεGT) induced by IL-4 in human B cell line DND 39 (IgE class switch suppression); assay type: cell-based; conditions: strictinin 1, 10 and 25 μM added at the same time with IL-4, DND 39, FIG. 3
Method: (§1) Each of Fr. 1 to 5 in Experimental Example 1 was evaluated for its antiallergic action in vitro by a method for the expression of a transcript of an IgE heavy chain germline transcript which was to investigate the suppression of IgE production in human B cells (IgE class switch suppression). This is a method utilizing the fact that, when human B cells are stimulated by IL-4 to induce the production of IgE, a transcription is started from the upstream intron corresponding to an ε region (Cε) in the constant domain gene of the Ig gene whereupon a transcript (CεGT: germline transcript) is expressed and, after that, a class switch of IgE is resulted by a DNA recombination. CεGT is an RNA which is always expressed before the IgE production is induced and the expressed amount of CεGT is proportional to the class switch amount of the IgE gene. Therefore, when the degree of expressed amount of CεGT is detected, it is possible to estimate the IgE class switch amount.
A method for the expression of an IgE heavy chain germline transcript was carried out according to the following procedures. […]
Then, a cDNA library was prepared according to the following procedure. First, concentration of the extracted total RNA was measured by an absorptiometer, a portion of 10 μg was taken in a 0.6 mL tube and water was added thereto to make 11.8 μL. […]

[3] = test system: CεGT inducible expression by IL-4 in human peripheral blood lymphocytes; test: expression of IgE heavy chain germline transcript (CεGT) induced by IL-4 in human peripheral blood lymphocytes; assay type: cell-based; conditions: strictinin 25 μM added at the same time with IL-4, human peripheral blood lymphocytes, FIG. 4
Method: as §1
Human peripheral blood normal cells (monocytes; separated from the blood which was collected from a healthy human volunteer) was used instead of the human B cell line DND 39 of Experimental Example 3 and an antiallergic activity was measured by the same way as in the method for the expression of an IgE heavy chain germline transcript mentioned in Experimental Example 2. […]

SMILES	liberation of histamine from mast cells [1]	IgE class switch by addition of IL-4 (CεGT inducible expression) [2]	IgE class switch by addition of IL-4 (CεGT inducible expression) [3]
O=C(O[C@@H]1Cc2c(O)cc(O)cc2O[C@@H]1c1cc(O)c(O)c(O)c1)c1cc(O)c(O)c(O)c1 [epigallocatechin gallate]	suppress		
O=C(O[C@@H]1Cc2c(O)cc(O)cc2O[C@@H]1c1ccc(O)c(O)c1)c1cc(O)c(O)c(O)c1 [epicatechin gallate]	suppress		
O=C(O[C@@H]1O[C@@H]2COC(=O)c3cc(O)c(O)c(O)c3-c3c(cc(O)c(O)c3O)C(=O)O[C@H]2[C@H](O)[C@H]1O)c1cc(O)c(O)c(O)c1 [strictinin]		strongly suppressed	strongly suppressed
